Laboratory results from ChEMBL document CHEMBL1130874, “Heteroatom- and carbon-linked biphenyl analogs of Brequinar as immunosuppressive agents” (Bioorg Med Chem Lett, 1998).

How the values were obtained:
[1] = Ability to inhibit proliferation in a mixture of human lymphocytes from two unrelated donors in MLR (human mixed lymphocyte reaction); type: functional, cell-based
[2] = target: Dihydroorotate dehydrogenase (quinone), mitochondrial (Homo sapiens, UniProt Q02127); assay: Immunosuppressive effect in an isolated enzyme assay using partially purified Dihydroorotate dehydrogenase from human liver for inhibition of the formation of orotate from radiolabeled dihydroorotate
Dihydroorotate dehydrogenase (quinone), mitochondrial, sequence (Q02127 whole entry): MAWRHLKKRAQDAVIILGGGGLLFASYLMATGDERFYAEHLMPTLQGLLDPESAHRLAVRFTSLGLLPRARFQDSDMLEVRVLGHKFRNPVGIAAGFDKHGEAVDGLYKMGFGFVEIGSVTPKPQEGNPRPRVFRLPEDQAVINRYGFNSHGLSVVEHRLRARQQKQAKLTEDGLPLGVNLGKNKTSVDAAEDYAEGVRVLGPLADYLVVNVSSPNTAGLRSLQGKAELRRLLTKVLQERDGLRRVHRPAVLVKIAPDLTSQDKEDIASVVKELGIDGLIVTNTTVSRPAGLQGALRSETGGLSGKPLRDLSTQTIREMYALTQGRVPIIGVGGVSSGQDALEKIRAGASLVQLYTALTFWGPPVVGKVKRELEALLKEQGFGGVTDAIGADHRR

| Ki [2] [nM] | Compound | IC50 [1] [nM] |
| --- | --- | --- |
| > 200 | Cc1c(Nc2ccccc2)nc2ccc(F)cc2c1C(=O)O | > 10000 |
| > 1000 | Cc1c(Oc2ccccc2)nc2ccc(F)cc2c1C(=O)O | > 10000 |
| 30 | COc1ccccc1-c1cccc2c1CCN2c1nc2ccc(F)cc2c(C(=O)O)c1C | 4.1 |
| 25 | Cc1ccccc1-c1cccc2c1CCN2c1nc2ccc(F)cc2c(C(=O)O)c1C | 1.6 |
| 40 | COc1ccccc1-c1cccc2c(-c3nc4ccc(F)cc4c(C(=O)O)c3C)cn(C)c12 | 650 |
| 23 | Cc1c(-c2cn(C)c3c(-c4cccc(C(F)(F)F)c4)cccc23)nc2ccc(F)cc2c1C(=O)O | 7 |
| > 130 | Cc1c(-c2c[nH]c3c(-c4ccccc4)cccc23)nc2ccc(F)cc2c1C(=O)O | 1600 |
| > 390 | CC(=O)N(c1cccc(-c2ccccc2)c1)c1nc2ccc(F)cc2c(C(=O)O)c1C | > 10000 |
| > 200 | Cc1c(OCc2ccc(-c3ccccc3)cc2)nc2ccc(F)cc2c1C(=O)O | > 10000 |
| – | Cc1c(-c2ccc(-c3ccccc3F)cc2)nc2ccc(F)cc2c1C(=O)O [BREQUINAR SODIUM] | 15 |
| 21 | Cc1c(Oc2cccc(-c3ccccc3)c2)nc2ccc(F)cc2c1C(=O)O | 210 |
| 30 | Cc1c(N2CCc3c(-c4ccccc4)cc(F)cc32)nc2ccc(F)cc2c1C(=O)O | 41 |
| 24 | Cc1c(N2CCc3c(-c4cccc(C(F)(F)F)c4)cccc32)nc2ccc(F)cc2c1C(=O)O | 0.41 |
| > 1000 | Cc1c(Oc2ccc(-c3ccccc3)cc2)nc2ccc(F)cc2c1C(=O)O | > 10000 |
| > 430 | Cc1c(Nc2ccc(-c3ccccc3)cc2)nc2ccc(F)cc2c1C(=O)O | > 10000 |
| 34 | COc1cccc(-c2cccc3c2CCN3c2nc3ccc(F)cc3c(C(=O)O)c2C)c1 | 4 |

| Compound | Ki [2] [nM] | IC50 [1] [nM] |
| --- | --- | --- |
| Cc1c(N2CCc3c(-c4ccccc4F)cccc32)nc2ccc(F)cc2c1C(=O)O | 24 | 2.8 |
| Cc1c(N(C)c2cccc(-c3ccccc3)c2)nc2ccc(F)cc2c1C(=O)O | 240 | > 10000 |
| COc1cc(-c2ccccc2)c2c(c1)N(c1nc3ccc(F)cc3c(C(=O)O)c1C)CC2 | 22 | 35 |
| Cc1c(Nc2cccc(-c3ccccc3)c2)nc2ccc(F)cc2c1C(=O)O | 83 | 340 |
| Cc1c(OCc2cccc(-c3ccccc3)c2)nc2ccc(F)cc2c1C(=O)O | 330 | > 10000 |
| Cc1c(-n2cnc3c(-c4ccccc4)cccc32)nc2ccc(F)cc2c1C(=O)O | 71 | 4700 |
| COc1cccc(-c2cccc3c(-c4nc5ccc(F)cc5c(C(=O)O)c4C)cn(C)c23)c1 | 32 | 190 |
| Cc1c(N2CCc3c(-c4ccccc4)cccc32)nc2ccc(F)cc2c1C(=O)O | 15 | 26 |
| Cc1c(-n2ccc3c(-c4ccccc4)cccc32)nc2ccc(F)cc2c1C(=O)O | 4.5 | 380 |
| Cc1c(-c2cccc3c(-c4ccccc4)cccc23)nc2ccc(F)cc2c1C(=O)O | 26 | 150 |
| Cc1c(-c2cn(C)c3c(-c4ccccc4)cccc23)nc2ccc(F)cc2c1C(=O)O | 27 | 140 |
